Results taken from US12281080B2, “Quinoline-based compounds and methods of inhibiting CDK8/19” (University of South Carolina, priority 2018, dated 2025).

What was measured:
[1] = target: TNK2 (Homo sapiens (Human), UniProt Q07912); assay: KINOMEscan scanMAX; format: binding; settings: 2000 nM; read-out: Percent Control
[2] = target: YANK1 (STK32A) (Homo sapiens (Human), UniProt Q8WU08); assay: KINOMEscan scanMAX; format: binding; settings: 2000 nM; read-out: Percent Control
[3] = target: PKN2 (Homo sapiens (Human), UniProt Q16513); assay: KINOMEscan scanMAX; format: binding; settings: 2000 nM; read-out: Percent Control
[4] = target: WNK4 (Homo sapiens (Human), UniProt Q96J92); assay: KINOMEscan scanMAX; format: binding; settings: 2000 nM; read-out: Percent Control
[5] = target: PIK3CA(C420R) (Homo sapiens (Human), UniProt P42336, C420R); assay: KINOMEscan scanMAX; format: binding; settings: 2000 nM; read-out: Percent Control
[6] = target: DMPK (Homo sapiens (Human), UniProt Q09013); assay: KINOMEscan scanMAX; format: binding; settings: 2000 nM; read-out: Percent Control
[7] = target: EGFR(T790M) (Homo sapiens (Human), UniProt P00533, T790M); assay: KINOMEscan scanMAX; format: binding; settings: 2000 nM; read-out: Percent Control
[8] = target: TYK2(JH1domain-catalytic) (Homo sapiens (Human), UniProt P29597); assay: KINOMEscan scanMAX; format: binding; settings: 2000 nM; read-out: Percent Control
[9] = target: ABL1(T315I)-nonphosphorylated (Homo sapiens (Human), UniProt P00519, T315I); assay: KINOMEscan scanMAX; format: binding; settings: 2000 nM; read-out: Percent Control
[10] = target: STK36 (Homo sapiens (Human), UniProt Q9NRP7); assay: KINOMEscan scanMAX; format: binding; settings: 2000 nM; read-out: Percent Control
[11] = target: IKK-beta (IKBKB) (Homo sapiens (Human), UniProt O14920); assay: KINOMEscan scanMAX; format: binding; settings: 2000 nM; read-out: Percent Control
[12] = target: MAK (Homo sapiens (Human), UniProt P20794); assay: KINOMEscan scanMAX; format: binding; settings: 2000 nM; read-out: Percent Control
[13] = target: PDGFRA (Homo sapiens (Human), UniProt P16234); assay: KINOMEscan scanMAX; format: binding; settings: 2000 nM; read-out: Percent Control
[14] = target: SRC (Homo sapiens (Human), UniProt P12931); assay: KINOMEscan scanMAX; format: binding; settings: 2000 nM; read-out: Percent Control
[15] = target: NIK (MAP3K14) (Homo sapiens (Human), UniProt Q99558); assay: KINOMEscan scanMAX; format: binding; settings: 2000 nM; read-out: Percent Control
[16] = target: ABL1(H396P)-nonphosphorylated (Homo sapiens (Human), UniProt P00519, H396P); assay: KINOMEscan scanMAX; format: binding; settings: 2000 nM; read-out: Percent Control
[17] = target: RIPK4 (Homo sapiens (Human), UniProt P57078); assay: KINOMEscan scanMAX; format: binding; settings: 2000 nM; read-out: Percent Control
[18] = target: CDK8 in complex with Cyclin C (Homo sapiens (Human), UniProt P49336); assay: LanthaScreen Eu Kinase Binding Assay
Description: The binding of the tracer to the kinase is detected using a europium-labeled anti-tag antibody, which binds to the kinase of interest. […] The binding of an inhibitor to the kinase competes for binding with the tracer, resulting in a loss of FRET.

[19] = target: ANKK1 (Homo sapiens (Human), UniProt Q8NFD2); assay: KINOMEscan scanMAX; format: binding; settings: 2000 nM; read-out: Percent Control
[20] = target: PRP4 (PRPF4B) (Homo sapiens (Human), UniProt Q13523); assay: KINOMEscan scanMAX; format: binding; settings: 2000 nM; read-out: Percent Control
[21] = target: CDKL5 (Homo sapiens (Human), UniProt O76039); assay: KINOMEscan scanMAX; format: binding; settings: 2000 nM; read-out: Percent Control
[22] = target: PIK3CA(H1047L) (Homo sapiens (Human), UniProt P42336, H1047L); assay: KINOMEscan scanMAX; format: binding; settings: 2000 nM; read-out: Percent Control
[23] = target: ABL1(T315I)-phosphorylated (Homo sapiens (Human), UniProt P00519, T315I); assay: KINOMEscan scanMAX; format: binding; settings: 2000 nM; read-out: Percent Control
[24] = target: FLT1 (Homo sapiens (Human), UniProt P17948); assay: KINOMEscan scanMAX; format: binding; settings: 2000 nM; read-out: Percent Control
[25] = target: MELK (Homo sapiens (Human), UniProt Q14680); assay: KINOMEscan scanMAX; format: binding; settings: 2000 nM; read-out: Percent Control
[26] = target: WNK3 (Homo sapiens (Human), UniProt Q9BYP7); assay: KINOMEscan scanMAX; format: binding; settings: 2000 nM; read-out: Percent Control
[27] = target: MYO3A (Homo sapiens (Human), UniProt Q8NEV4); assay: KINOMEscan scanMAX; format: binding; settings: 2000 nM; read-out: Percent Control
[28] = target: BRK (PTK6) (Homo sapiens (Human), UniProt Q13882); assay: KINOMEscan scanMAX; format: binding; settings: 2000 nM; read-out: Percent Control
[29] = target: TGFBR2 (Homo sapiens (Human), UniProt P37173); assay: KINOMEscan scanMAX; format: binding; settings: 2000 nM; read-out: Percent Control
[30] = target: CDC2L5 (CDK13) (Homo sapiens (Human), UniProt Q14004); assay: KINOMEscan scanMAX; format: binding; settings: 2000 nM; read-out: Percent Control
[31] = target: MAPKAPK2 (Homo sapiens (Human), UniProt P49137); assay: KINOMEscan scanMAX; format: binding; settings: 2000 nM; read-out: Percent Control
[32] = target: CHEK1 (Homo sapiens (Human), UniProt O14757); assay: KINOMEscan scanMAX; format: binding; settings: 2000 nM; read-out: Percent Control
[33] = target: FYN (Homo sapiens (Human), UniProt P06241); assay: KINOMEscan scanMAX; format: binding; settings: 2000 nM; read-out: Percent Control
[34] = target: MEK4 (MAP2K4) (Homo sapiens (Human), UniProt P45985); assay: KINOMEscan scanMAX; format: binding; settings: 2000 nM; read-out: Percent Control
[35] = target: HIPK3 (Homo sapiens (Human), UniProt Q9H422); assay: KINOMEscan scanMAX; format: binding; settings: 2000 nM; read-out: Percent Control
[36] = target: p38-beta (MAPK11) (Homo sapiens (Human), UniProt Q15759); assay: KINOMEscan scanMAX; format: binding; settings: 2000 nM; read-out: Percent Control
[37] = target: PRKCD (Homo sapiens (Human), UniProt Q05655); assay: KINOMEscan scanMAX; format: binding; settings: 2000 nM; read-out: Percent Control
[38] = target: MLK2 (MAP3K10) (Homo sapiens (Human), UniProt Q02779); assay: KINOMEscan scanMAX; format: binding; settings: 2000 nM; read-out: Percent Control

PRKCD, sequence (Q05655 whole entry): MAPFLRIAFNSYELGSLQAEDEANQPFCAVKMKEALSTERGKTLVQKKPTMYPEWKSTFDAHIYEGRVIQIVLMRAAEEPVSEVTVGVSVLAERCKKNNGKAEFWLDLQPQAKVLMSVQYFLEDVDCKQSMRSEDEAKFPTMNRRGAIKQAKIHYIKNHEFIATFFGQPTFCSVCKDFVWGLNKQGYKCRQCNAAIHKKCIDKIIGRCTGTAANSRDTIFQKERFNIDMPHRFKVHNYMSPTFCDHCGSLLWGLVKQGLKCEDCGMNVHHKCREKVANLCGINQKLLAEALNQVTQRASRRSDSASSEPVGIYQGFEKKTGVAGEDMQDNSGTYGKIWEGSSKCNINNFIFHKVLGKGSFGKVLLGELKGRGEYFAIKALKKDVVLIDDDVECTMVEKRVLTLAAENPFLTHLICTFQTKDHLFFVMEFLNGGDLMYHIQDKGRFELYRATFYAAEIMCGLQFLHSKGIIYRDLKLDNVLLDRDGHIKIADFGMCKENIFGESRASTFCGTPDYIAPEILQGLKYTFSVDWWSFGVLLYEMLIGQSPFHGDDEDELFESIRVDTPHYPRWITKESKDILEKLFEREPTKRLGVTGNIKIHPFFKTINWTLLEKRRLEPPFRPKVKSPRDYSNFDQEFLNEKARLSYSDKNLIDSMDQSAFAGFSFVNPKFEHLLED
FYN, sequence (P06241 whole entry): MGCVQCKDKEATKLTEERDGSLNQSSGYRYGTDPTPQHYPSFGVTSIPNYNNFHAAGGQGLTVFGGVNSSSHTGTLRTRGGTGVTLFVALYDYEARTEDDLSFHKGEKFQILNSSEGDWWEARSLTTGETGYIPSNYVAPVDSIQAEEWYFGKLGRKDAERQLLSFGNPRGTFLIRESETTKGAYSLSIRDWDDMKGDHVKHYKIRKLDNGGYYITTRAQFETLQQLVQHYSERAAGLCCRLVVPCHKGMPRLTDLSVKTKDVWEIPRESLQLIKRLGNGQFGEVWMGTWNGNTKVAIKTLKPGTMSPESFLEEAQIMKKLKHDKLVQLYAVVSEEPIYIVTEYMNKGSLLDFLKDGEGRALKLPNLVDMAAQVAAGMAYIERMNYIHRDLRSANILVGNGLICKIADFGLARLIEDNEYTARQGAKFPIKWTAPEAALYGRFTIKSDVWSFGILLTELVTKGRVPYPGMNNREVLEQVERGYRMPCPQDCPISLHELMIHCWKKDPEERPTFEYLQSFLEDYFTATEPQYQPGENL
PIK3CA(H1047L), sequence (P42336 whole entry H1047L): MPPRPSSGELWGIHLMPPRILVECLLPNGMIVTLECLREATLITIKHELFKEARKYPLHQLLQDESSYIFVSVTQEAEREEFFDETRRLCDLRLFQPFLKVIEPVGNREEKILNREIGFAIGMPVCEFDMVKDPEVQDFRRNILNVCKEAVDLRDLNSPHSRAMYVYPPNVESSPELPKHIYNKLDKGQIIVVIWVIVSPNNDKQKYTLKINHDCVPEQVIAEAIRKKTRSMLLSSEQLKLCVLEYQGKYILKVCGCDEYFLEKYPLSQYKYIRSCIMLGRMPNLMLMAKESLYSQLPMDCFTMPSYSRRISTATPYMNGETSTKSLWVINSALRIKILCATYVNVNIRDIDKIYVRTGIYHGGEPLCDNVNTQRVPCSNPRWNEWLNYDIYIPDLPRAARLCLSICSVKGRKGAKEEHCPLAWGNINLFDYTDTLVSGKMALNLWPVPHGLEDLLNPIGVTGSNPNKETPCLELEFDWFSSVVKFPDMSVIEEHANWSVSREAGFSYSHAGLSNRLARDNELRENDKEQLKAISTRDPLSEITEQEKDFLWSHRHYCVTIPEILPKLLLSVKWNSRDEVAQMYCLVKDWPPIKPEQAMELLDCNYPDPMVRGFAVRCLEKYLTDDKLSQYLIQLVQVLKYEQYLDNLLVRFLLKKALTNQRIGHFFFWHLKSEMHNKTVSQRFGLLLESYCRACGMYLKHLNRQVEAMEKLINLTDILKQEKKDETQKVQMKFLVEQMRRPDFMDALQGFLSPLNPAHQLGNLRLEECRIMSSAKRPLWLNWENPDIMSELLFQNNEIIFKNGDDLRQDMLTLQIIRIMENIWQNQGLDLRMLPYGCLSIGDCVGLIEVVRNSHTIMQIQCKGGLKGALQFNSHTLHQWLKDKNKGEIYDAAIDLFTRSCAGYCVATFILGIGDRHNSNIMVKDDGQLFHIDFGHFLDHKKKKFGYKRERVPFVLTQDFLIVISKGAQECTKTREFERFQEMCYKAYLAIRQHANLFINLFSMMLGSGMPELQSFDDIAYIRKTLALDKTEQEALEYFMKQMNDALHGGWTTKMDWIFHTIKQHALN
NIK (MAP3K14), sequence (Q99558 whole entry): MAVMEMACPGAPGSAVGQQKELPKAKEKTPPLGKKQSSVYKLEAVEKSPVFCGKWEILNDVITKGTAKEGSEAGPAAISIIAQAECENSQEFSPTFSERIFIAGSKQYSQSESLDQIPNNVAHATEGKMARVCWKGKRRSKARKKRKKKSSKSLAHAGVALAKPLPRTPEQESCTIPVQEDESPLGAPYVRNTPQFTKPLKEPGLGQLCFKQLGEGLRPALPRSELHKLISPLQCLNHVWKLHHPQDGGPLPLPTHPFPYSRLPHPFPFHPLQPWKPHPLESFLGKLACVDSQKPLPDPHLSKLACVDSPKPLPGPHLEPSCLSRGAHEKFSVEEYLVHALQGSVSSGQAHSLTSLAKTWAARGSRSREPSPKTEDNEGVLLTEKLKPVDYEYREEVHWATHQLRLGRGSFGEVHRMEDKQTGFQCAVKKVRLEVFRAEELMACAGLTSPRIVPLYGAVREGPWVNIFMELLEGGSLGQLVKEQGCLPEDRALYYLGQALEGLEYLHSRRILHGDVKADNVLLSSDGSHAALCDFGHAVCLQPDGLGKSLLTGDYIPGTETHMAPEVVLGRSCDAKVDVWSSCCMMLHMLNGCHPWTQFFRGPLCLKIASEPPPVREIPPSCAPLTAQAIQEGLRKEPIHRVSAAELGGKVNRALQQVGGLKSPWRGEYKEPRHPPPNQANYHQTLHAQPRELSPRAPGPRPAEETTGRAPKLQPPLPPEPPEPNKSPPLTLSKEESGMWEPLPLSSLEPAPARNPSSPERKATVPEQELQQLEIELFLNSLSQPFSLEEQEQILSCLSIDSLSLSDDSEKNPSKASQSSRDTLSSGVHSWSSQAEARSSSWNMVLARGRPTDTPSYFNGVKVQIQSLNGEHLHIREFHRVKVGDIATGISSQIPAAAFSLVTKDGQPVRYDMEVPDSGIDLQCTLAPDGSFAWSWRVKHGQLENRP
MAK, sequence (P20794 whole entry): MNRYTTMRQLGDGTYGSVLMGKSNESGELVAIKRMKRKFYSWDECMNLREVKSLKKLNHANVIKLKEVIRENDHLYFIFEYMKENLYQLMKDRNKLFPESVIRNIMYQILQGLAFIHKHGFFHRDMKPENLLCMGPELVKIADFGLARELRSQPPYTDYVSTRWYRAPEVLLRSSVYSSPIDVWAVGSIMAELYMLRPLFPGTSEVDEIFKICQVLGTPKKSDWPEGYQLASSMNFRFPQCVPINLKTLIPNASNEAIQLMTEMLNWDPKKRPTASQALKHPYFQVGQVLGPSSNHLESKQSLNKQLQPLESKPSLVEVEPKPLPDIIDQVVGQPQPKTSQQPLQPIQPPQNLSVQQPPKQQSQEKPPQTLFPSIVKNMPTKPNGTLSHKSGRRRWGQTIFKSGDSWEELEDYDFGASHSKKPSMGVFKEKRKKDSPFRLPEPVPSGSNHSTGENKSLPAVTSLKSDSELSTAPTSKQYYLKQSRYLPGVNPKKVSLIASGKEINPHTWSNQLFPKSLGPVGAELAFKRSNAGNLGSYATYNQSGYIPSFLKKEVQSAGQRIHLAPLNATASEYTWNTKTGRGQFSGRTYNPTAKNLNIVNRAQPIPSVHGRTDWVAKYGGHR
SRC, sequence (P12931 whole entry, looked up): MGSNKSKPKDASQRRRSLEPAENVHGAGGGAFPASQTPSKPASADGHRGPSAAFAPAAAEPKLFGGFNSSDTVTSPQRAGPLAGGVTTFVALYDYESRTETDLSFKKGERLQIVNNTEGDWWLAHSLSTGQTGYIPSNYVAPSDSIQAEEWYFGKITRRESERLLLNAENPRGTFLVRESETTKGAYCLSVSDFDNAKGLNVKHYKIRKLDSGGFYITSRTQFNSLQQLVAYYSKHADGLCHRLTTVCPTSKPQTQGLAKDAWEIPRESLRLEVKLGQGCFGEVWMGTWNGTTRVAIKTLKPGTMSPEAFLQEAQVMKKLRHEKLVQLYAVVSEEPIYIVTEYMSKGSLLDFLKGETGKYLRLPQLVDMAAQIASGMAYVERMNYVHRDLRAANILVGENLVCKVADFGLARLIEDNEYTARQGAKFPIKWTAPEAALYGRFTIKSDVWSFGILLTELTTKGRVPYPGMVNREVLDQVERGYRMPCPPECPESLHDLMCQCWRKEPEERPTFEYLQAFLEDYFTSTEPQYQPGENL
DMPK, sequence (Q09013 whole entry): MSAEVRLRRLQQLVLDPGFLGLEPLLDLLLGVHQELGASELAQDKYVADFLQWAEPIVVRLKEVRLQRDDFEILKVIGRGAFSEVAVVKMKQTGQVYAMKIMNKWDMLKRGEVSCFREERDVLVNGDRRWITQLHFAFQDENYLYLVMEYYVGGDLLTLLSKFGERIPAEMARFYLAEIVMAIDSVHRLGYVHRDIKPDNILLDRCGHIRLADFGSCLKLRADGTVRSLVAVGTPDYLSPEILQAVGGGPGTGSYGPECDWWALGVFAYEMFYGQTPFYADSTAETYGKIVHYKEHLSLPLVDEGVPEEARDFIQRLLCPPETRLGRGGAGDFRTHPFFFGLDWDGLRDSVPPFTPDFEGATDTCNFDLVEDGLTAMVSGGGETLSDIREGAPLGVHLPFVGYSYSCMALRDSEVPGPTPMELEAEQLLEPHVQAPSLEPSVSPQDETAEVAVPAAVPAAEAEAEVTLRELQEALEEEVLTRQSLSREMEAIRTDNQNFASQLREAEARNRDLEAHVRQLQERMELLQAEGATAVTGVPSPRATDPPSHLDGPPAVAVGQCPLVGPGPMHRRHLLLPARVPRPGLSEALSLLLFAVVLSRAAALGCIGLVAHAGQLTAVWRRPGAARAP
PIK3CA(C420R), sequence (P42336 whole entry C420R): as the sequence (P42336 whole entry H1047L) above, with C420R, L1047H counted along it

CN1CCN(C(=O)c2ccc3cc(CCNc4ccnc5ccc(C#N)cc45)ccc3c2)CC1 [compound 6148, 4-((2-(6-(4-methylpiperazine-1-carbonyl)naphthalen-2-yl)ethyl)amino)quinoline-6-carbonitrile]
remaining binding at 2 µM [1]: 94%
remaining binding at 2 µM [2]: 76%
remaining binding at 2 µM [3]: 89%
remaining binding at 2 µM [4]: 69%
remaining binding at 2 µM [5]: 73%
remaining binding at 2 µM [6]: 98%
remaining binding at 2 µM [7]: 93%
remaining binding at 2 µM [8]: 62%
remaining binding at 2 µM [9]: 90%
remaining binding at 2 µM [10]: 88%
remaining binding at 2 µM [11]: 76%
remaining binding at 2 µM [12]: 100%
remaining binding at 2 µM [13]: 97%
remaining binding at 2 µM [14]: 92%
remaining binding at 2 µM [15]: 88%
remaining binding at 2 µM [16]: 73%
remaining binding at 2 µM [17]: 57%
IC50 [18]: 3.8 nM
remaining binding at 2 µM [19]: 69%
remaining binding at 2 µM [20]: 71%
remaining binding at 2 µM [21]: 70%
remaining binding at 2 µM [22]: 84%
remaining binding at 2 µM [23]: 76%
remaining binding at 2 µM [24]: 99%
remaining binding at 2 µM [25]: 97%
remaining binding at 2 µM [26]: 75%
remaining binding at 2 µM [27]: 100%
remaining binding at 2 µM [28]: 97%
remaining binding at 2 µM [29]: 96%
remaining binding at 2 µM [30]: 64%
remaining binding at 2 µM [31]: 91%
remaining binding at 2 µM [32]: 100%
remaining binding at 2 µM [33]: 89%
remaining binding at 2 µM [34]: 58%
remaining binding at 2 µM [35]: 52%
remaining binding at 2 µM [36]: 80%
remaining binding at 2 µM [37]: 83%
remaining binding at 2 µM [38]: 79%
